Laboratory results reported in patent publication US20240369539A1, “AN ADHERENT CELL CULTURE METHOD FOR GENERATING TIGHT JUNCTION BETWEEN CELLS AND ITS PRODUCT APPLICATION” (ZHEJIANG UNIVERSITY, priority 2021, published 2024).

What was measured:
[1] = tested on: in vitro blood-brain barrier model (membranous cell sheet formed by endothelial cells)
[2] = tested on: in vitro blood-brain barrier model (membranous cell sheet formed by endothelial cells); experiment: test of a blood-brain barrier toxic drug on the in vitro blood-brain barrier model; conditions: FIG. 20
Procedure: A test of a blood-brain barrier toxic drug is carried out to determine the response of the blood-brain barrier model constructed in the embodiment to the blood-brain barrier toxic drug.

| Structure (SMILES) | content detected in the lower chamber [1] | barrier function of the blood-brain barrier model ([2]; after self-recovery for 24 hours following drug treatment) | barrier function of the blood-brain barrier model ([2]; after treatment with the blood-brain barrier toxic drug) |
| --- | --- | --- | --- |
| N[C@@H](Cc1ccc(O)c(O)c1)C(=O)O [L-dopamine] | significantly higher than that of the dopamine |  |  |
| NCCc1ccc(O)c(O)c1 [dopamine] | the content of the L-dopamine detected in the lower chamber is significantly higher than that of the dopamine |  |  |
| CN[C@@H](C)Cc1ccccc1 [methamphetamine] |  | significantly improved | significantly reduced |
